How the values were obtained:
pinellic acid formation [1] = test: Pinellic acid concentration in whole wheat bread (LC/MS/MS)
Protocol: (§1) The concentration of pinellic acid was analyzed for both control and treatment dough samples using the following method: The 15 mg of dough (or 27 mg of bread) was extracted with 1 mL 1:1 IPA/H2O (v/v) spiked with prostaglandin-F2α ([…]) ISTD. Samples were sonicated for 10 min followed by shaking using the GenoGrinder at 1000 rpm for 10 min. Samples were then diluted 1:50 and sample clean-up was carried out using a 96-well Oasis PRIME HLB plate (1 cc, 30 mg sorbent). After sample load (250 μL) and wash (750 μL, 10% acetonitrile (aq.) with 0.1% formic acid) steps, the retentate was eluted with 500 μL 90% acetonitrile (aq.) with 0.1% formic acid. Samples were further diluted to 2 mL using water with 0.1% formic acid. The standard calibration curve was prepared using 6-points ranging from 0.24 ng/ml to 500 ng/mL.
Quantitative analysis was conducted using MRM acquisition. LC/MS/MS analysis was conducted using a Waters ACQUITY H-class UPLC system coupled with a Xevo TQ-S mass spectrometer (Waters Co.). […]
Wheat breads were made using a modified AACC straight-dough bread-making method (AACC, 1999). […] The concentration of pinellic acid was analyzed for both control and spiking whole wheat bread samples as described for the dough analysis. […]

pinellic acid formation [2] = test: Pinellic acid concentration in HRW Everest flour dough (LC/MS/MS); details: treatment dough (946.5 ng Schaftoside in 12 μL water per 15 mg HRW Everest flour) vs control; pvalue <0.05
Protocol: For the dough analysis 15 mg of Hard Red Winter (“HRW”) Everest flour was weighed into 2 Eppendorf tubes containing one ¼ inch stainless steel balls, followed by the addition of 12 μL of water (4:5 water/flour ratio) to make a control dough sample. The treatment dough sample was similarly prepared to the control sample with the exception that 946.5 ng of Schaftoside in 12 μL of water (4:5 water/flour ratio) was added instead of pure water.
as §1
Quantitative analysis was conducted using MRM acquisition. […]

[3] = Paired sensory difference test of whole wheat bread bitterness (20 panelists); format: in vivo; details: paired comparison, 20 participants, nose clips, bread crumb chewed 10 seconds; Pvalue <0.05
Description: Twenty participants were recruited by Flavor Research and Education Center (FREC) at The Ohio State University. The whole wheat bread samples (control and treatment) were cut into 3 cm×2 cm×1 cm (L×W×H) squares of crumb the day before the test and stored at room temperature in sealed 2 oz cups labeled with a 3-digit codes. Each panelist evaluated one pair of samples containing the control sample and the treatment sample. Panelists used nose clips during the evaluation in order to prevent interactions with olfactory responses. Panelists were instructed to place the entire piece of bread crumb in their mouth, chew for 10 seconds, and evaluate the maximum bitter intensity perceived. After evaluating each sample in the pair, panelists were asked to choose the most bitter sample. The serving order of each bread sample was balanced. Water was used as a palate cleanser.
Compusense Cloud Software version 7.2 (Compusense, Guelph, Canada) was used for data collection. Approval of the sensory evaluation protocol was granted by the Ethics Committee, The Ohio State University (IRB #2019B0402). Paired Student t-tests was executed with SPSS Statistics Version 25 (International Business Machines Corp., Armonk, NY).

O=c1cc(-c2ccc(O)cc2)oc2c([C@@H]3OC[C@H](O)[C@H](O)[C@H]3O)c(O)c([C@@H]3O[C@H](CO)[C@@H](O)[C@H](O)[C@H]3O)c(O)c12 [Schaftoside, schaftoside]
pinellic acid concentration in treatment bread (pinellic acid formation [1]; schaftoside raised from 88.4 to 151.5 mg/kg (68.1 mg/kg flour added) prior to bread making, control bread 308.64 mg/kg, pvalue <0.05): 228.6 mg/kg | reduction in pinellic acid formation (pinellic acid formation [1]; treatment vs control, schaftoside added to flour prior to bread making): 26% | reduction in pinellic acid content (pinellic acid formation [2]): 30% | perceived bitterness of treatment bread vs control bread [3]: significantly less bitter
